A short description of data set [1]: Hygroscopicity of the active pharmaceutical ingredient. Format: physicochemical.
A short description of data set [2]: Solubility / biopharmaceutical classification system class. Type of data set: physicochemical.

SMILES strings stand for the structures. “Also recorded” adds a separate entry of the source.

With `C=CC(=O)N1CCC([C@@H]2CCNc3c(C(N)=O)c(-c4ccc(Oc5ccccc5)cc4)nn32)CC1` [Zanubrutinib, (S)-7-[4-(1-acryloylpiperidine)]-2-(4-phenoxyphenyl)-4,5,6,7-tetrahydropyrazolo[1,5-a] pyrimidine-3-carboxamide], in data set [1], the hygroscopicity result is reported as “slightly hygroscopic”. Moreover, the “biopharmaceutical classification system class” value in data set [2] is “class II (low solubility, and high permeability)”. Also, the solubility entry in data set [2] (active pharmaceutical ingredient) is reported as “poor solubility; also recorded: pH-dependent solubility”.

(Values after patent publication US12233069B2, “Oral solid tablet comprising Bruton's Tyrosine Kinase inhibitor and preparation method therefor” (BEIGENE SWITZERLAND GMBH, priority 2019, dated 2025).)
